Consider 14 molecules from paper doi:10.1101/2025.11.25.689777, “NanoBRET Tracer Development for Class I Bromodomain Target Engagement in Live Cells” (bioRxiv, 2025).

The conditions of data set [1]: legend calls it literature permeability data; cited from earlier work.
For data set [2], the target named is class I bromodomains PCAF, GCN5, and CECR2. Set-up: method as in PMID 34515477. Conditions: off-target activity; read-out: affinities for the other class I bromodomains; cited from earlier work.
For data set [3], the target named is T1, BPTF-BRD (Homo sapiens, UniProt Q12830). Set-up: method as in PMID 34375106. Conditions: read-out: Lit. Values: BRET EC50; cited from earlier work. Background: BRET reads energy transfer from a luciferase to a nearby fluorophore.
Data set [4] addresses T1, BPTF-BRD. To be noted: ITC; cited from earlier work. (In ITC the heat of successive injections is recorded.)
The target of data set [5] is T2, BPTF-BRD-Nluc (Homo sapiens, UniProt Q12830). The data set can be described thus: Competition NanoBRET target engagement, inhibitors vs MS-1 tracer on BPTF-BRD-Nluc in HEK293T cells. To be noted: for inhibition of the BPTF-BRD in NanoBRET titration: BPTF-BRD-Nluc, 0.5 μM MS-1.
From the text: One assay which can be used to determine bromodomain inhibitor engagement in live cells is known as NanoBRET based on bioluminescent resonance energy transfer. NanoBRET requires a nanoluciferase (Nluc) enzyme to be fused to a protein of interest at either the N- or C-terminus of the protein and expressed in cells. Secondly, a small molecule tracer must be developed which contains the protein ligand, linker, and fluorophore. […] The ligand binds to the protein, and the BODIPY fluorophore has a structural requirement to be in proximity of less than 10 nm to the Nluc enzyme. Finally, when the Nluc substrate furimazine is added, Nluc oxidatively converts the substrate into furimamide, CO2, and light.[7],[8] The energy from the bioluminescence can be transferred to the BODIPY fluorophore leading to the BRET signal. When unlabeled bromodomain inhibitors are added, the tracer is displaced resulting in a dose-dependent reduction in BRET (Figure 1A).
MS-1 was next assessed for its utility in a competition-based NanoBRET experiment for the determination of live cell bromodomain engagement.
HEK293T Cell Culture and Transfection
(§1) HEK293T cells were cultured in DMEM, 10% FBS, 5% penicillin-streptomycin and incubated at 37 °C with 5% CO 2. The NanoBRET assay was executed based on the Promega NanoBRET TE 590 Dyes technical protocol. HEK293T cells (200,000 cells/mL) were transiently transfected with each target-NanoLuc fusion vector. A 10 μg/mL solution of lipid:DNA complexes containing each fusion vector were prepared with 9.0 μg/mL of transfection carrier DNA (Promega), 1.0 μg/mL of target-NanoLuc fusion vector DNA
(§2) (Promega), and 1 mL of Opti-MEM I. FuGENE HD Transfection Reagent (Promega) was added at a concentration of 30 μL per mL of DNA mixture. The lipid:DNA complex mixture was inverted five times and allowed to incubate for 20 minutes at room temperature.
(§3) Lipid:DNA complex was then added to HEK293T cells in a 1:20 lipid:DNA complex to cells ratio. The subsequent mixture was inverted and dispensed into sterile tissue culture flasks at a density between 55,000 and 80,000 cells/cm 2. The cells were incubated for 20 – 30 hours at 37 °C, 5% CO 2. Following incubation, the transfected cells were then adjusted to a density of 200,000 cells/mL in Opti-MEM I.
General NanoBRET Assay Protocol
BRET assays were performed using white, 384-well tissue-culture-treated plates (Corning HEK293T cells were plated at 7 x 10^3 cells per well. Stock DMSO solutions of each novel BRET tracer to be tested were diluted in Tracer Dilution Buffer (Promega) to achieve a 20X concentration by adding 4:1 Tracer Dilution Buffer to 1 part 100X tracer.
BPTF-BRD BRET assays were conducted using a final MS-1 concentration of 0.5 μM, and PCAF, GCN5, and CECR2 used a final MS-1 concentration of 1 μM. Stock DMSO solutions of inhibitors were diluted to a 1,000X concentration in 100% DMSO and subsequently dissolved to a final 10X concentration in Opti-MEM. Upon addition of the tracer and inhibitor, the cells were incubated for 2 hours at 37 °C, 5% CO 2.
Details of data set [6]: method as in PMID 34146702. Conditions: reported PAMPA data; cited from earlier work. On the technique in general: The PAMPA barrier holds no transporters, so it reflects passive diffusion.
The conditions of data set [7]: known from the literature; cited from earlier work.
For data set [8], the target named is T1, BPTF-BRD. Put plainly: Kinetic NanoBRET measurement of tracer kon, koff and Kd with the BPTF-BRD. Format: cell-based. As to the method: Figure 3. A) Tracer titration plots against BPTF-BRD-Nluc in HEK293T cells and their EC50 values. *second replicate EC50 could not be determined due to an incomplete curve. B) Kinetics data with MS-1 at varying concentrations over 25 minutes (truncated from 1 hour). C) Linear plot of kobs values at each concentration of MS-1. The kon and koff values were determined from the linear fit equation and were used to calculate the Kd. D) BI-7190 titration plots at various MS-1 concentrations to determine ideal assay window. EC50 values of BI-7190 are reported at various MS-1 concentrations. All graphical data represents mean ± standard deviation where A, B, and C are technical duplicates with n=2, and D is reported as a technical duplicate with n=3. […] (μM) of the same panel. / Panel D: the concentration row of the table is headed [BI-7190] as printed; it is unclear whether 2, 1, 0.5 and 0.25 μM are concentrations of BI-7190 or of another substance.
Before testing inhibitors, the Kd value of the tracer with the BPTF-BRD was measured kinetically by determining the kon and koff rates of the NanoBRET tracer. The Kd of the tracer enables the conversion of EC50 values to apparent Ki values. Varying concentrations of MS-1 were dosed, and measurements were taken every 35 seconds over the course of one hour (Figure 3B). The association of MS-1 with the BPTF-BRD was fast (~ 15 minutes). Data was fit using one-phase association and kobs values were determined for each concentration. […] This affinity is within two-fold of the EC50 derived for MS-1, indicating good cell permeability of the tracer. Additionally, this moderate affinity is an ideal range for future competition experiments.

For the next data set, the target named is T3, Nluc-CECR2 (Homo sapiens, UniProt Q9BXF3).
T3 construct: MS-1 was titrated against the N-terminal full length Nluc-CECR2; host or cells: HEK293T
The data set can be described thus: Competition NanoBRET on full-length Nluc-CECR2 with MS-1 in HEK293T cells. Format: cell-based.

The target in data set [9] is T2, BPTF-BRD-Nluc. Put plainly: NanoBRET tracer titration against BPTF-BRD-Nluc in HEK293T cells. Format: cell-based. Conditions: for EC50: tracer titrated against BPTF-BRD-Nluc, HEK293T cells, n=2.
Another data set addresses T4, GCN5-Nluc (Homo sapiens, UniProt Q92830).
T4 construct: The C-terminal full-length GCN5-Nluc construct was titrated against MS-1; host or cells: HEK293T
Put plainly: Competition NanoBRET on full-length GCN5-Nluc with MS-1 in HEK293T cells. The data set is classed as cell-based.

Another data set deals with T5, PCAF-Nluc (Homo sapiens, UniProt Q92831).
T5 construct: two constructs of full-length PCAF containing either N- or C-terminal Nluc; host or cells: HEK293T
Put plainly: Competition NanoBRET on full-length PCAF-Nluc with MS-1 in HEK293T cells. The data set is classed as cell-based.

Data set [10] is described as follows: Caco-2 cell-based permeability assay. The data set is classed as in vitro ADME. To be noted: human, Caco-2, pH 7.4, 2 h at 37 °C. On the procedure:
Figure S6. MS-1 titration against Nluc-CECR2 in the presence of either DMSO (purple) or
compound 4 (black) at 100 μM.
Caco-2 Cell-Based Permeability Assay
The Caco-2 permeability assay was conducted as previously described
(PMID: 36793425). Briefly, Caco-2 cells were maintained at 37 °C in a humidified
incubator with 5% CO2, cultured in MEM supplemented with 10% FBS, 100 units/ml of
penicillin, and 100 μg/ml of streptomycin in 75 cm 2 flasks. Cells were seeded onto 96-well
Transwell inserts at a density of 0.165×10^5 cells/insert and cultured for an additional 7
days. Monolayers were washed twice with HBSS/HEPES (10 mM, pH 7.4) before starting
the permeability assay. To initiate the assay, a 10 μmol/L solution of each test compound
was added to either the apical (A) or basolateral (B) side of the inserts. The monolayers
were incubated for 2 h at 37 °C. Samples were collected from both compartments and
compound concentrations were measured by UPLC/MS (Waters; Milford, MA). All
compounds were tested in triplicates.
The apparent permeability coefficient (Papp, cm/s) of each compound in the A→B (or
B→A) direction was calculated using the equation: […]
where dQ/dt is the flux (μmol/s), A is the surface area (cm 2), and C0 is the initial
Chromatographic separation was performed on a Waters Acquity UPLC system coupled
to an SQ mass spectrometer. […]
recording was used for quantification of each compound.

In data set [11] the target is T1, BPTF-BRD. Put plainly: In vitro AlphaScreen competitive inhibition. The data set is classed as biochemical. To be noted: for IC50: in vitro, BPTF-BRD.
For a further data set, the target named is PCAF. Set-up: method as in PMID 27966810. Conditions: read-out: literature Kd; cited from earlier work.
Setting [12] is: BRET EC50, BPTF-BRD-Nluc, 0.5 μM MS-1, HEK293T cells, n=2.

SMILES strings stand for the structures. Like-named read-outs stand apart in the source and are kept apart here.

T4 sequence (Q92830 whole entry): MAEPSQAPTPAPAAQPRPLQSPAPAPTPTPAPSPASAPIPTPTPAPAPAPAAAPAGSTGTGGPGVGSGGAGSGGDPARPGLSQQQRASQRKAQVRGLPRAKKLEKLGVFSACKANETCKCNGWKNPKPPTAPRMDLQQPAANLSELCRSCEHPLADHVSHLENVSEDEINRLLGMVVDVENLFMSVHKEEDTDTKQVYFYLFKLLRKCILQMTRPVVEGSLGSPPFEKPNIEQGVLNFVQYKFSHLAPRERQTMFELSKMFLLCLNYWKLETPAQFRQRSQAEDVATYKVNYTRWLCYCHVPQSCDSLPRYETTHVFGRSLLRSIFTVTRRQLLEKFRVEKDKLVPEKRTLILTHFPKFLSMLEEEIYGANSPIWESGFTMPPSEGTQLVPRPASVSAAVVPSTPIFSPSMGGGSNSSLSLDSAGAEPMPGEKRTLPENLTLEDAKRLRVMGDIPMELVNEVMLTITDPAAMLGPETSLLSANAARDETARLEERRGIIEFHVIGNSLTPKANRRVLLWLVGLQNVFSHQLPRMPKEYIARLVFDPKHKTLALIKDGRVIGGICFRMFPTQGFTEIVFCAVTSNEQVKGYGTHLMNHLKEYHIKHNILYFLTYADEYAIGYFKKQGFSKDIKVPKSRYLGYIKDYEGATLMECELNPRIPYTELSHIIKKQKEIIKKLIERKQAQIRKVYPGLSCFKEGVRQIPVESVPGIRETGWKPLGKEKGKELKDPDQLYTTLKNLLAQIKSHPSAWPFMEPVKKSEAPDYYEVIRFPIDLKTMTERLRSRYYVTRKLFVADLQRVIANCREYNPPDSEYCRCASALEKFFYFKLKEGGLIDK
T5 sequence (Q92831 whole entry): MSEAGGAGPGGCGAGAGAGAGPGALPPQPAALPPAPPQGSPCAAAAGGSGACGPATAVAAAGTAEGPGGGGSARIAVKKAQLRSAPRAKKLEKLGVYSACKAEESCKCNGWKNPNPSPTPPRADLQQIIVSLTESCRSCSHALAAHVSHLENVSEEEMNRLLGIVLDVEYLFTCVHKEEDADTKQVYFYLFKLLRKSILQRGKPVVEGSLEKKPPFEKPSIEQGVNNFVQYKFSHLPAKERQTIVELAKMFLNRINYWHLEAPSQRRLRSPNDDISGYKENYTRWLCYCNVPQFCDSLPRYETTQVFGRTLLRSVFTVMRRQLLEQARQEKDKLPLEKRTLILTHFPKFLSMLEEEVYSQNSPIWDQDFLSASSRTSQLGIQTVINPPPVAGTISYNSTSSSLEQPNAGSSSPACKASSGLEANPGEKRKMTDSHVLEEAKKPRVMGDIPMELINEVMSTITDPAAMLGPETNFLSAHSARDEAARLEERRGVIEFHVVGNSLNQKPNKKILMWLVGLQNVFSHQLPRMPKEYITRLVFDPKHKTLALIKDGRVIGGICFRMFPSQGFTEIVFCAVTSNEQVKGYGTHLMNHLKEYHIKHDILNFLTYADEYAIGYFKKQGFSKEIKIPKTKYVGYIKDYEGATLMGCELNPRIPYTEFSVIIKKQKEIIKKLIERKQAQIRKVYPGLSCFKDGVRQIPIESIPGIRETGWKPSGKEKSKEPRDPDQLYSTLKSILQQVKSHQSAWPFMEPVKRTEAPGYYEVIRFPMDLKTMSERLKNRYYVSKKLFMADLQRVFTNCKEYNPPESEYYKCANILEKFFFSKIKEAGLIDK
T3 sequence (Q9BXF3 whole entry): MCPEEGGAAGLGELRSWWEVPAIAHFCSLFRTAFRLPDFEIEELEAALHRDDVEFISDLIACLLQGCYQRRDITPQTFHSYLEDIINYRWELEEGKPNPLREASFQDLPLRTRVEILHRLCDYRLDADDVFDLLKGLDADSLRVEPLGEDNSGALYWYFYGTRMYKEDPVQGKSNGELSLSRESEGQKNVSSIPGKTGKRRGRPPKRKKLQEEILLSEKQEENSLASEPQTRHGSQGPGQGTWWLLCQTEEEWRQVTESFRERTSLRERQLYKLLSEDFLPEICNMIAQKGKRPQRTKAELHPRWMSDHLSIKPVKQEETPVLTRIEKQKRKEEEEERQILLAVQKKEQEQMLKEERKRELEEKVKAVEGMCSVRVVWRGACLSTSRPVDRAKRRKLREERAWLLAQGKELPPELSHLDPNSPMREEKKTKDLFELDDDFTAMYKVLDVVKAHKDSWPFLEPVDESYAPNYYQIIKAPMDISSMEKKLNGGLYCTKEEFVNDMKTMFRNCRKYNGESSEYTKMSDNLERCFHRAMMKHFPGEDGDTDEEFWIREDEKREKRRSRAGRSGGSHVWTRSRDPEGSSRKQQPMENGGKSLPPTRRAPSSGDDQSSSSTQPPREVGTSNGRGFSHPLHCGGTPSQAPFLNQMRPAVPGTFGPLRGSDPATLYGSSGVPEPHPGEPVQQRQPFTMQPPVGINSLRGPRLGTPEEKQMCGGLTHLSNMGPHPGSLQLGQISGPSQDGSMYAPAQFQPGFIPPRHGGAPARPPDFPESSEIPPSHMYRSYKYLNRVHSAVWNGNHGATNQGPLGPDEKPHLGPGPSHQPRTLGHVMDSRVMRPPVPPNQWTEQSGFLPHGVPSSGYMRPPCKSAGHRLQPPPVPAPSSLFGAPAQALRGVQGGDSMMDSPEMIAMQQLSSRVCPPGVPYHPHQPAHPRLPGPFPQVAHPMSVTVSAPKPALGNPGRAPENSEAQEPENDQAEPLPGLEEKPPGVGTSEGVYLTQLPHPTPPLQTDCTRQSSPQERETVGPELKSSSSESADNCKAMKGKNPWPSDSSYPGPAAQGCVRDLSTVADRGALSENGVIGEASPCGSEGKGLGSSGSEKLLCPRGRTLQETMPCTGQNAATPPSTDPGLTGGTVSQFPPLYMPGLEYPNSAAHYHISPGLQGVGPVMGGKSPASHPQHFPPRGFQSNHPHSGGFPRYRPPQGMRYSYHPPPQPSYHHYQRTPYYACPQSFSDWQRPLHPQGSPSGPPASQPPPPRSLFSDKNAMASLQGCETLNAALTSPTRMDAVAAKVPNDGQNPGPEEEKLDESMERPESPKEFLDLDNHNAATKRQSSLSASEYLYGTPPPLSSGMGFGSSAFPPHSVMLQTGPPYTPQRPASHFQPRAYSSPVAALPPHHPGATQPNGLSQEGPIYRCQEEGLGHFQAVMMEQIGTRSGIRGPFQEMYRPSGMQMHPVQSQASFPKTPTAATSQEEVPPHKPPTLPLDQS
Method for GCN5-Nluc: HEK293T Cell Culture and Transfection
as §1, §2, §3
General NanoBRET Assay Protocol […]
BPTF-BRD BRET assays were conducted using a final MS-1 concentration of 0.5 μM, and PCAF, GCN5, and CECR2 used a final MS-1 concentration of 1 μM. […] BRET was then measured in a Tecan Spark plate reader following a 30 second orbital shake with an amplitude of 1 mm and frequency of 510 rpm.
(§4) DMSO control wells with no tracer and no inhibitor for background correction as well as control wells with tracer and no inhibitor to determine the maximal assay window. For both tracer and inhibitor titration plots, a BRET ratio for each concentration was calculated as acceptor response divided by donor response. […]
Method for Nluc-CECR2: MS-1 was titrated against the N-terminal full length Nluc-CECR2.
HEK293T Cell Culture and Transfection
as §1, §2, §3
General NanoBRET Assay Protocol […]
(§5) BPTF-BRD BRET assays were conducted using a final MS-1 concentration of 0.5 μM, and PCAF, GCN5, and CECR2 used a final MS-1 concentration of 1 μM. […] BRET was then measured in a Tecan Spark plate reader following a 30 second orbital shake with an amplitude of 1 mm and frequency of 510 rpm. Luminescence was measured using the luminescence […]
as §4
Method for PCAF-Nluc: First, engagement of MS-1 with full-length PCAF was investigated. MS-1 was titrated against two constructs of full-length PCAF containing either N- or C-terminal Nluc to determine the optimal position of the Nluc enzyme.
HEK293T Cell Culture and Transfection
as §1, §2, §3
General NanoBRET Assay Protocol […]
as §5, §4

With `Cn1ncc(Nc2ccc(CCN)cc2)c(Cl)c1=O` [BZ1], the “Caco-2 or PAMPA: Caco-2” value in data set [1] is 0.9 ± 5 10^-6 cm/s. Besides, the Kd in [2] is 11 to 44 nM.

For the molecule `COc1cc(-c2cn(C)c(=O)c(C)c2C)ccc1C1(N2CCN(C)CC2)CC1` [BI-7190], the “Caco-2 or PAMPA: Caco-2” value in [1] was 21 10^-6 cm/s. Moreover, the 50% effective concentration (EC50) on BPTF-BRD [3] was 58 nM; on BPTF-BRD-Nluc [5] (setting [12]), 66 ± 3 nM; at BPTF-BRD-Nluc [5] (EC50, printed [BI-7190]: 0.25 μM (MS-1 concentration per legend), n=3) it was 70 ± 10 nM; at BPTF-BRD-Nluc [5] (EC50, printed [BI-7190]: 0.5 μM (MS-1 concentration per legend), n=3), 100 ± 10 nM; at BPTF-BRD-Nluc [5] (EC50, printed [BI-7190]: 1 μM (MS-1 concentration per legend), n=3), 160 ± 20 nM; on BPTF-BRD-Nluc [5] (EC50, printed [BI-7190]: 2 μM (MS-1 concentration per legend), n=3), 200 ± 10 nM. Also, on BPTF-BRD [4], the Kd is 85 nM.

Regarding `Cc1c(Nc2ccc(S(=O)(=O)N3CCN(C)CC3)cc2F)nc2ccc(-c3cnn(C4CC4)c3)cn2c1=O` [NVS-BPTF-1], the “Caco-2 or PAMPA: PAMPA” value in data set [6] is 16 10^-6 cm/s. Moreover, the solubility result in [7] is on record as “poor solubility”. Besides, the concentration for a half-maximal effect (EC50) at BPTF-BRD-Nluc [5] (setting [12]) was found to be 400 ± 50 nM.

On BPTF-BRD [8] (linear fit of kobs vs [MS-1]), `Cn1ncc(Nc2ccc3c(c2)CCN(CCCCNC(=O)CCc2ccc4n2[B-](F)(F)[N+]2=C(c5ccc[nH]5)C=CC2=C4)C3)c(Cl)c1=O` [MS-1] came in with a dissociation rate constant (koff) of 0.00181 ± 3e-05 s⁻¹. Moreover, at BPTF-BRD [8] (linear fit of kobs vs [MS-1]), the on-rate (kon) was 1800 ± 400 M⁻¹ s⁻¹. The Kd at BPTF-BRD [8] (measured kinetically, calculated from kon and koff) is 1100 ± 300 nM. Further, at BPTF-BRD [8] (measurements every 35 seconds over one hour), the “association with the BPTF-BRD (time)” value is recorded as ~ 15 minutes. The assay window result at Nluc-CECR2 (1 μM MS-1, Nluc-CECR2) is recorded as “around 20 mBu”; on BPTF-BRD-Nluc [9] (tracer titration, BPTF-BRD-Nluc construct), 60 mBu; on GCN5-Nluc (1 μM MS-1, GCN5-Nluc), ~20 mBu; at PCAF-Nluc (1 μM MS-1, PCAF-Nluc), ~20 mBu; at BPTF-BRD-Nluc [5] (0.5 μM MS-1, BPTF-BRD-Nluc), ~30 mBu. The “competition of tracer by compound 4 (non-specific interactions)” value is “less-efficient competition” on Nluc-CECR2 (Nluc-CECR2, 4 at 100 μM); “largely competed away” on BPTF-BRD-Nluc [9] (BPTF-BRD-Nluc, 25X molar excess of 4 (100 μM)); “competed away” at GCN5-Nluc (GCN5-Nluc, 4 at 100 μM); “competed away” at PCAF-Nluc (PCAF-Nluc, 4 at 100 μM). In addition, the midpoint of the response at BPTF-BRD-Nluc [9], the EC50, lay at 600 ± 100 nM.

For `CN(C)CCCOc1ccc(-c2cc(NCCCn3cccn3)nc(S(C)(=O)=O)n2)cc1` [TP-238], the “Caco-2 or PAMPA: PAMPA” value in [6] is 28 10^-6 cm/s. In addition, the EC50 at Nluc-CECR2 (Nluc-CECR2, n=2, MS-1 1 μM in text and SI, 0.5 μM in Figure 6 legend, read-out: BRET EC50) came to 620 ± 60 nM; at BPTF-BRD-Nluc [5] (setting [12]) it was 1200 ± 100 nM.

On to `Cn1ncc(Nc2ccc3c(c2)CCN(CCCCNC(=O)CCOCCOCCOCCOCCNC(=O)CCc2ccc4n2[B-](F)(F)[N+]2=C(c5ccc[nH]5)C=CC2=C4)C3)c(Cl)c1=O` [MS-3], for which, on BPTF-BRD-Nluc [9], the EC50 is 3700 nM.

As to `CN1CCc2cc(Nc3ncn(C)c(=O)c3Cl)ccc2C1` [compound 5], the Papp at 2 h, 10 μmol/L in data set [10] amounted to 70 ± 80 ×10⁻⁶ cm/s. Further, the “fold lower affinity in vitro” value at BPTF-BRD [11] (compound 5 compared with compound 4, AlphaScreen IC50) stood at 2.5 fold. On BPTF-BRD [11], this molecule yielded an IC50 of 660 ± 40 nM. On BPTF-BRD-Nluc [5] (setting [12]), this molecule gave an EC50 of 1400 ± 200 nM. The “fold lower affinity in cells” value on BPTF-BRD-Nluc [5] (compound 5 compared with compound 4, NanoBRET EC50) was 1.5 fold.

As for `COC(=O)c1cccc(NC(=O)N[C@H]2CCN(c3ccnc(Nc4ccc(F)cc4)n3)C2)c1` [S-AU1], the “inhibition of the BPTF-BRD in NanoBRET titration” value at BPTF-BRD-Nluc [5] was “neither showed full inhibition”.

As for `CN1CCc2ccc(Nc3cnn(C)c(=O)c3Cl)cc2C1` [compound 6], the IC50 at BPTF-BRD [11] is 2100 nM. For the same molecule, the EC50 on BPTF-BRD-Nluc [5] (setting [12]) stood at 4000 ± 300 nM.

`CN1CCc2cc(Nc3cnn(C)c(=O)c3Cl)ccc2C1` [compound 4]: in data set [10], the Papp at 2 h, 10 μmol/L is 47 ± 20 ×10⁻⁶ cm/s. This molecule returned a half-inhibitory concentration (IC50) at BPTF-BRD [11] of 260 nM. The same molecule registered a 50% effective concentration (EC50) at BPTF-BRD-Nluc [5] (setting [12]) of 900 ± 200 nM.

At BPTF-BRD-Nluc [5] (setting [12]), `CN(C)CCCn1ccc2cc(-c3nc(S(C)(=O)=O)nc4[nH]ccc34)ccc21` [DC-BPi-11] had an EC50 of 450 ± 20 nM.

Take `COC(=O)c1cccc(NC(=O)NC2CCN(c3ccnc(Nc4ccc(F)cc4)n3)C2)c1` (racemic) [AU1 (Rac)]: on BPTF-BRD-Nluc [5], the “inhibition of the BPTF-BRD in NanoBRET titration” value is “neither showed full inhibition”.

In the case of `Cc1nnc2c3ccccc3c(N[C@@H](C)[C@H](c3ccccc3)N(C)C)nn12` [L-Moses, reference compound], on PCAF, the Kd is 126 nM. Moreover, the EC50 on GCN5-Nluc (GCN5-Nluc, 1 μM MS-1, n=2, read-out: BRET EC50) is 500 ± 60 nM; on PCAF-Nluc (PCAF-Nluc, 1 μM MS-1, n=2, read-out: BRET EC50), 280 ± 50 nM.

Consider `Cn1ncc(Nc2ccc3c(c2)CCN(CCCCNC(=O)CCCNC(=O)CCc2ccc4n2[B-](F)(F)[N+]2=C(c5ccc[nH]5)C=CC2=C4)C3)c(Cl)c1=O` [MS-2], for which, on BPTF-BRD-Nluc [9], the EC50 amounted to 3300 ± 100 nM.

What is called EC50 is the concentration needed to bring the measured effect to its halfway point. The koff is a measure of how fast the partners let go of each other. Read a high koff as a short-lived complex. Usually kon stands for the second-order rate constant of association. Low readings indicate slow association, high ones fast association. What is called Papp is a coefficient for how fast a substance crosses the barrier. The low end stands for slow passage, the high end for fast passage. By IC50 is commonly meant the concentration that gives 50% inhibition.
